Data on eight compounds can be found in PubChem BioAssay AID504438 (Sanford-Burnham Center for Chemical Genomics, 2011).

One may read the IC50 as the point on the concentration scale where inhibition reaches its midpoint.

Calls of active or inactive are those of the source.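 Rule for the calls: active = IC50 below 20 µM in the dose response test; inactive = the rest.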

The target of the experiment is Type-1 angiotensin II receptor (Homo sapiens) (UniProt P30556). Kind of experiment: AGTR1 beta-arrestin recruitment antagonism – cell-based, CHO-K1 AGTR1, luminescence, set 4, selectivity assay for APJ receptor antagonist project, SAR follow-up (AID 504438). As to conditions: CHO-K1 AGTR1 beta-arrestin complementation.
Chain of Type-1 angiotensin II receptor (Homo sapiens) (P30556 whole entry, looked up): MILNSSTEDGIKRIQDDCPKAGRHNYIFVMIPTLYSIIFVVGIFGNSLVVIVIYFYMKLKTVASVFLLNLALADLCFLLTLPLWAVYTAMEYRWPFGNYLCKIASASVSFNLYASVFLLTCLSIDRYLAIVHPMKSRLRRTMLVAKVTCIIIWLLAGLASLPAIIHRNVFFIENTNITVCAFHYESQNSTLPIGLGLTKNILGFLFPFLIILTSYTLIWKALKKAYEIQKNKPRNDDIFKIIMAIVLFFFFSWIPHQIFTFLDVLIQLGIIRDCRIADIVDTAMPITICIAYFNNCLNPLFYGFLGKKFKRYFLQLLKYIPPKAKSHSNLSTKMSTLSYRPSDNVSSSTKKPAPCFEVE
For the compound `O=C(Oc1coc(CSc2ccc(Cl)cc2)cc1=O)c1ccc(Cl)c([N+](=O)[O-])c1`, the IC50 is > 79 µM (inactive).
With `Cc1ccc(SCc2cc(=O)c(OC(=O)c3ccc(Cl)c([N+](=O)[O-])c3)co2)cc1` the figure was > 79 µM (inactive).
With `Cc1cc(C)nc(SCc2cc(=O)c(OC(=O)c3ccc(-c4nccs4)cc3)co2)n1` the figure was > 79 µM (inactive); with `Cc1ccnc(SCc2cc(=O)c(NC(=O)c3ccc([N+](=O)[O-])cc3)co2)n1`, > 79 µM (inactive).
Turning to `O=C(Oc1coc(CSc2ccc(OC(F)(F)F)cc2)cc1=O)c1ccc(Cl)c([N+](=O)[O-])c1`, the IC50 was > 79 µM (inactive).
As to `COc1ccc(SCc2cc(=O)c(OC(=O)c3ccc(Cl)c([N+](=O)[O-])c3)co2)cc1`, the IC50 is > 79 µM (inactive).
For the compound `O=C(Oc1coc(CN2CCOCC2)cc1=O)c1ccccc1`, the IC50 was > 79 µM (inactive).
Then `O=C(Oc1coc(CN2CCOCC2)cc1=O)c1ccc([N+](=O)[O-])cc1`, with > 79 µM (inactive).
